Source: ChEMBL document CHEMBL1201862, “PubChem BioAssay data set” (2004)
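96-well plates; 48 h exposure; 5 concentrations. Endpoints by linear interpolation between flanking doses. Not reached: highest tested concentration assigned. Abbreviation: GI50, concentration required for 50% inhibition of growth.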 The source made the active and inactive calls. Rule as the data show it: active = GI50 up to about 1.1 µM and inactive = higher.

Experiments:
Assay in all cases: NCI-60 cell line screen, 48 h
A549 = system: A549
ACHN = system: ACHN
CAKI-1 = system: CAKI-1
CCRF-CEM = system: CCRF-CEM
COLO 205 = system: COLO 205
DU-145 = system: DU-145
HCC 2998 = system: HCC 2998
HL-60 = system: HL-60
HOP-92 = system: HOP-92
Hs-578T = system: Hs-578T
M14 = system: M14
MCF7 = system: MCF7
MDA-MB-435 = system: MDA-MB-435
NCI-H23 = system: NCI-H23
OVCAR-4 = system: OVCAR-4
SF-268 = system: SF-268
SK-MEL-2 = system: SK-MEL-2
SNB-75 = system: SNB-75
SW-620 = system: SW-620
OVCAR-3 = system: OVCAR-3

`N/N=c1\[nH]c2ccccc2o1` was tested, and the GI50 (A549) was > 100 µM (inactive), the GI50 (ACHN) was > 100 µM (inactive) and the GI50 (CAKI-1) was > 100 µM (inactive). For the same molecule, the GI50 (CCRF-CEM) was 31.7 µM (inactive), the GI50 (COLO 205) was > 100 µM (inactive) and the GI50 (DU-145) was > 100 µM (inactive). The GI50 (HCC 2998) was > 100 µM (inactive), the GI50 (HL-60) was 53.6 µM (inactive) and the GI50 (HOP-92) was > 100 µM (inactive). The GI50 (Hs-578T) was > 100 µM (inactive), the GI50 (M14) was > 100 µM (inactive) and the GI50 (MCF7) was 88.7 µM (inactive). The GI50 (MDA-MB-435) was > 100 µM (inactive), the GI50 (NCI-H23) was > 100 µM (inactive) and the GI50 (OVCAR-4) was 46.5 µM (inactive). For the same molecule, the GI50 (SF-268) was > 100 µM (inactive), the GI50 (SK-MEL-2) was > 100 µM (inactive) and the GI50 (SNB-75) was > 100 µM (inactive). For the same molecule, the GI50 (SW-620) was > 100 µM (inactive).

In the case of `N[C@H]1c2c(Br)sc(Br)c2C(=O)[C@H]1O`, the GI50 (A549) is reported as 24.9 µM (inactive), the GI50 (ACHN) is reported as 24.7 µM (inactive) and the GI50 (CAKI-1) is reported as 0.214 µM (active). The GI50 (CCRF-CEM) was 2.72 µM (inactive), the GI50 (COLO 205) was 6.18 µM (inactive) and the GI50 (DU-145) was 20.3 µM (inactive). The GI50 (HCC 2998) was 13.8 µM (inactive), the GI50 (HL-60) was 2.85 µM (inactive) and the GI50 (HOP-92) was 21.5 µM (inactive). The GI50 (Hs-578T) was 31 µM (inactive), the GI50 (M14) was 8.69 µM (inactive) and the GI50 (MCF7) was 13.3 µM (inactive). The GI50 (MDA-MB-435) was 13.7 µM (inactive), the GI50 (NCI-H23) was 3.64 µM (inactive) and the GI50 (OVCAR-3) was 7.36 µM (inactive). The GI50 (OVCAR-4) was 11.4 µM (inactive), the GI50 (SF-268) was 24.9 µM (inactive) and the GI50 (SK-MEL-2) was 23.9 µM (inactive). The GI50 (SNB-75) was 29.2 µM (inactive) and the GI50 (SW-620) was 6.41 µM (inactive).

`COC(=O)C1=C(C)NC(C)=C(C(=O)OC)C1c1ccc(/[N+]([O-])=C/c2ccccc2)cc1` was tested, and the GI50 (A549) was 96.6 µM (inactive), the GI50 (ACHN) was 17.4 µM (inactive) and the GI50 (CAKI-1) was 18.7 µM (inactive). The GI50 (CCRF-CEM) was 17 µM (inactive), the GI50 (COLO 205) was 19 µM (inactive) and the GI50 (DU-145) was > 100 µM (inactive). For the same molecule, the GI50 (HCC 2998) was > 100 µM (inactive), the GI50 (HL-60) was 15.1 µM (inactive) and the GI50 (HOP-92) was 20.8 µM (inactive). The GI50 (Hs-578T) was 41.3 µM (inactive), the GI50 (M14) was 18.1 µM (inactive) and the GI50 (MCF7) was 16.7 µM (inactive). For the same molecule, the GI50 (MDA-MB-435) was 30.4 µM (inactive), the GI50 (NCI-H23) was 42.5 µM (inactive) and the GI50 (OVCAR-3) was 18.9 µM (inactive). For the same molecule, the GI50 (OVCAR-4) was 17.3 µM (inactive), the GI50 (SF-268) was > 100 µM (inactive) and the GI50 (SK-MEL-2) was > 100 µM (inactive). The GI50 (SNB-75) was 34.9 µM (inactive) and the GI50 (SW-620) was 20 µM (inactive).

With `CN(C)c1ccc(/C=C2\N=C(N/N=C/c3ccc(N(C)C)cc3)NC2=O)cc1` the GI50 (A549) was 92.5 µM (inactive), the GI50 (ACHN) was > 100 µM (inactive) and the GI50 (CAKI-1) was > 100 µM (inactive). For the same molecule, the GI50 (CCRF-CEM) was 27.5 µM (inactive), the GI50 (COLO 205) was 22.8 µM (inactive) and the GI50 (DU-145) was 28.1 µM (inactive). For the same molecule, the GI50 (HCC 2998) was > 100 µM (inactive), the GI50 (HL-60) was 29.4 µM (inactive) and the GI50 (HOP-92) was 25.5 µM (inactive). For the same molecule, the GI50 (Hs-578T) was > 100 µM (inactive), the GI50 (M14) was 88.7 µM (inactive) and the GI50 (MCF7) was 71.9 µM (inactive). For the same molecule, the GI50 (MDA-MB-435) was > 100 µM (inactive), the GI50 (NCI-H23) was > 100 µM (inactive) and the GI50 (OVCAR-3) was 50.9 µM (inactive). For the same molecule, the GI50 (OVCAR-4) was > 100 µM (inactive), the GI50 (SF-268) was 80.4 µM (inactive) and the GI50 (SK-MEL-2) was > 100 µM (inactive). For the same molecule, the GI50 (SNB-75) was > 100 µM (inactive) and the GI50 (SW-620) was > 100 µM (inactive).

With `CCC1(O)CC(OC2CC(N(C)C)C(OC3CC(O)C(OC4CCC(=O)C(C)O4)C(C)O3)C(C)O2)c2c(cc3c(c2O)C(=O)c2c(O)ccc(O)c2C3=O)C1C(=O)OC` (centres undefined) the GI50 (A549) was < 0.01 µM (active), the GI50 (ACHN) was < 0.01 µM (active) and the GI50 (CAKI-1) was < 0.01 µM (active). For the same molecule, the GI50 (CCRF-CEM) was < 0.01 µM (active), the GI50 (COLO 205) was < 0.01 µM (active) and the GI50 (DU-145) was < 0.01 µM (active). The GI50 (HCC 2998) was < 0.01 µM (active), the GI50 (HL-60) was < 0.01 µM (active) and the GI50 (HOP-92) was < 0.01 µM (active). For the same molecule, the GI50 (Hs-578T) was < 0.0407 µM (active), the GI50 (M14) was < 0.01 µM (active) and the GI50 (MCF7) was < 0.01 µM (active). The GI50 (MDA-MB-435) was < 0.0122 µM (active), the GI50 (NCI-H23) was < 0.01 µM (active) and the GI50 (OVCAR-3) was 0.0101 µM (active). The GI50 (OVCAR-4) was < 0.01 µM (active), the GI50 (SF-268) was < 0.01 µM (active) and the GI50 (SK-MEL-2) was < 0.01 µM (active). The GI50 (SNB-75) was < 0.01 µM (active) and the GI50 (SW-620) was < 0.01 µM (active).

For `c1ccc(Cn2c(-c3ccc(-c4ccccc4)cc3)cc3ccccc32)cc1`, the GI50 (A549) was > 100 µM (inactive), the GI50 (ACHN) was > 100 µM (inactive) and the GI50 (CAKI-1) was > 100 µM (inactive). For the same molecule, the GI50 (CCRF-CEM) was > 100 µM (inactive), the GI50 (COLO 205) was > 100 µM (inactive) and the GI50 (DU-145) was > 100 µM (inactive). The GI50 (HCC 2998) was > 100 µM (inactive), the GI50 (HL-60) was > 100 µM (inactive) and the GI50 (HOP-92) was > 100 µM (inactive). For the same molecule, the GI50 (Hs-578T) was 24.1 µM (inactive), the GI50 (M14) was > 100 µM (inactive) and the GI50 (MCF7) was > 100 µM (inactive). For the same molecule, the GI50 (MDA-MB-435) was > 100 µM (inactive), the GI50 (NCI-H23) was > 100 µM (inactive) and the GI50 (OVCAR-3) was > 100 µM (inactive). For the same molecule, the GI50 (OVCAR-4) was > 100 µM (inactive), the GI50 (SF-268) was > 100 µM (inactive) and the GI50 (SK-MEL-2) was 94.6 µM (inactive). The GI50 (SNB-75) was 58.1 µM (inactive) and the GI50 (SW-620) was > 100 µM (inactive).

For `O=C1C2CC=CCC2C(=O)N1n1c(Cc2ccc(Cl)cc2)n[nH]c1=O` (centres undefined), the GI50 (A549) was > 100 µM (inactive), the GI50 (ACHN) was > 100 µM (inactive) and the GI50 (CAKI-1) was > 100 µM (inactive). The GI50 (CCRF-CEM) was > 100 µM (inactive), the GI50 (COLO 205) was > 100 µM (inactive) and the GI50 (DU-145) was > 100 µM (inactive). For the same molecule, the GI50 (HCC 2998) was > 100 µM (inactive), the GI50 (HL-60) was > 100 µM (inactive) and the GI50 (HOP-92) was > 100 µM (inactive). The GI50 (Hs-578T) was > 100 µM (inactive), the GI50 (M14) was > 100 µM (inactive) and the GI50 (MCF7) was > 100 µM (inactive). The GI50 (MDA-MB-435) was > 100 µM (inactive), the GI50 (NCI-H23) was > 100 µM (inactive) and the GI50 (OVCAR-3) was > 100 µM (inactive). The GI50 (OVCAR-4) was > 100 µM (inactive), the GI50 (SF-268) was > 100 µM (inactive) and the GI50 (SK-MEL-2) was > 100 µM (inactive). For the same molecule, the GI50 (SNB-75) was > 100 µM (inactive) and the GI50 (SW-620) was > 100 µM (inactive).
